Earlier results, collected in patent publication US20250312247A1, “OXYGEN GENERATING FACE MASKS” (DERMOQ, INC., priority 2018, published 2025).

Conditions: topically applied dissolved oxygen, transcutaneous

depth of penetration through human skin: > 700 μm
SMILES: O=O [dissolved oxygen, oxygen]
